Assay results: patent publication US20030225065A1, “Bis-arylsulfones” (priority 2002, published 2003)
Structures can show the parent of a compound that is named as a salt.

Key:
[1] = target: T1, cloned human 5-HT6 receptor (Homo sapiens, UniProt P50406); assay: 5-HT6 receptor binding assay ([3H]-LSD radioligand, SPA beads, Hela cell membranes); settings: IC50 converted to Ki by the Cheng-Prusoff equation
T1 construct: host or cells: HeLa cells (G-418 selection), membrane preparation
Method: Harvested intact cells are washed once in cold phosphate-buffered saline. The cells are pelleted and resuspended in 100 ml of cold 50 mM Tris, 5 mM EDTA and 5 mM EGTA, pH 7.4. Homogenization is with a Vir Tishear generator, 4 cycles for 30 seconds each at setting 50. The homogenized cells are centrifuged at 700 RPM (1000×g) for 10 minutes and the supernatant is removed. […] The rehomogenized cells are then centrifuged at 700 RPM (1000×g) for 10 minutes and the supernatant is removed. […] The membrane pellet is resupended in 50-8-ml of assay buffer containing HEPES 20 mM, MgCl2 10 mM, NaCl 150 mM, EDTA 1 mM, pH 7.4 and stored frozen in aliqouts at −70° C.
The radioligand binding assay used [^3H]-lysergic acid diethylamide (LSD). The assay is carried out in Wallac 96-well sample plates by the addition of 11 μl of the test sample at the appropriate dilution (the assay employed 11 serial concentrations of samples run in duplicate), 11 μl of radioligand, and 178 μl of a washed mixture of WGA-coated SPA beads and membranes in binding buffer. The plates are shaken for about 5 minutes and then incubated at room temperature for 1 hour. The plates are then loaded into counting cassettes and counted in a Wallac MicroBeta Trilux scintillation counter.
Eleven serial dilutions of test compounds are distributed to assay plates using the PE/Cetus Pro/Pette pipetter. […]

T1 sequence (P50406 whole entry): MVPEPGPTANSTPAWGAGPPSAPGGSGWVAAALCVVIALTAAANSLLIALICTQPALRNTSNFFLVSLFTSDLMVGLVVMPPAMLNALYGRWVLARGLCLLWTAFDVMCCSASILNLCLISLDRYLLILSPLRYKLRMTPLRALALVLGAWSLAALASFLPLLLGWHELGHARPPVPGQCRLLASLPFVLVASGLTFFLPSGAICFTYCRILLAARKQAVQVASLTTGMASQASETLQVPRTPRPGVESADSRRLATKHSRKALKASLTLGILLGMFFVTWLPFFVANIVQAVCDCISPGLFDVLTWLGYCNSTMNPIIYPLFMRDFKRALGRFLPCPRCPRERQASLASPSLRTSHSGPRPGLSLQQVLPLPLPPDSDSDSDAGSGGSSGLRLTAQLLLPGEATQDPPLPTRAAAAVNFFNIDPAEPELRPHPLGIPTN

melting point [°C] | Ki [1] [nM] | Compound
153 to 154 |  | CNc1cc(N2CCCNCC2)ccc1S(=O)(=O)c1cccc(F)c1 (as salt: HCl)
106 to 108 |  | Nc1cc(N2CCCNCC2)ccc1S(=O)(=O)c1cccc(F)c1 (as salt: hydrochloride) [Example 2, 5-(1,4-diazepan-1-yl)-2-[(3-fluorophenyl)sulfonyl]phenylamine]
165 to 166 |  | Nc1cc(N2CCNCC2)ccc1S(=O)(=O)c1ccccc1 (as salt: salt) [Example 1, 2-(phenylsulfonyl)-5-(1-piperazinyl)phenylamine]
121 to 123 |  | CCNc1cc(N2CCNCC2)ccc1S(=O)(=O)c1ccccc1 (as salt: salt) [Example 13, N-ethyl-2-(phenylsulfonyl)-5-(1-piperazinyl) phenylamine]
144 to 146 |  | Nc1cc(N2CCNCC2)ccc1S(=O)(=O)c1ccc(F)cc1 [Example 3, 2-[(4-fluorophenyl)sulfonyl]-5-(1-piperazinyl) phenylamine]
85 to 89 |  | CN1CCN(c2ccc(S(=O)(=O)c3ccc(F)cc3)c(N)c2)CC1 [Example 4, 2-[(4-fluorophenyl)sulfonyl]-5-(4-methyl-1-piperazinyl) phenylamine]
102 to 106 |  | Cc1ccc(S(=O)(=O)c2ccc(N3CCNCC3)cc2N)cc1 [Example 5, 2-[(4-methylphenyl)sulfonyl]-5-(1-piperazinyl) phenylamine]
148 to 151 |  | Cc1ccc(S(=O)(=O)c2ccc(N3CCN(C)CC3)cc2N)cc1 [Example 6, 2-[(4-methylphenyl)sulfonyl]-5-(4-methyl-1-piperazinyl) phenylamine]
90 to 93 |  | CN1CCN(c2ccc(S(=O)(=O)c3ccccc3)c(N)c2)CC1 [Example 7, 5-(4-methyl-1-piperazinyl)-2-(phenylsulfonyl) phenylamine]
89 to 92 |  | CN1CCN(c2ccc(S(=O)(=O)c3cccc(F)c3)c(N)c2)CC1 [Example 8, 2-[(3-fluorophenyl)sulfonyl]-5-(4-methyl-1-piperazinyl) phenylamine]
 | 2.7 | CCNc1cc(N2CCNCC2)ccc1S(=O)(=O)c1ccccc1 [Example 13, N-ethyl-2-(phenylsulfonyl)-5-(1-piperazinyl) phenylamine]
